Test results as given in the supplement of paper PMC11451515.

Legend:
Details in all cases: 48 h
NOMO1 [1] = experiment: cell viability relative to DMSO control; higher = less cytotoxic
In short: (§1)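 Viability is expressed as a percentage of DMSO wells within each plate, and cell-free wells serve as background. Seeding densities in the 1536-well plates (5 μl) were 500 cells/well for NOMO1 or SEM leukemia cells and 1000 cells/well for P12-Ichikawa. Each line was adapted for at least four passages in each medium. Library compounds in DMSO were pin-dosed at 47 μM to 0.79 nM (11 points, threefold), and CellTiter-Glo One luminescence was read after 48 h at 37°C.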

P12-Ichikawa [2] = experiment: as above
In short: as §1

SEM cells = experiment: as above
In short: as §1

NOMO1 [3] = experiment: AUC of viability dose-response curve (% viability x log10 dose units); higher = less sensitive
In short: (§2)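 Medium-adapted leukemia cells in 1536-well plates, at 500 or 1000 cells/well, were incubated for 48 h at 37°C with library compounds in DMSO at 11 threefold doses from 47 μM to 0.79 nM. CellTiter-Glo One luminescence normalised per plate to DMSO and cell-free wells was fitted with a four-parameter log-logistic model over log10 doses. Area under the curve was integrated from this fit by trapezoidal rule, with curves beyond full viability scaled and failed quality-control curves removed.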

P12-Ichikawa [4] = experiment: as above
In short: as §2

Nc1ccc(C(=O)Nc2cccc(-c3nc(N4CCOCC4)c4oc5ncccc5c4n3)c2)cn1
cell viability [%]
Details	NOMO1 [1]	P12-Ichikawa [2]	SEM cells
HPLM + 10% dialyzed FBS, 0.000781 µM	122	125	119
HPLM + 10% dialyzed FBS, 0.00234 µM	118	122	120
HPLM + 10% dialyzed FBS, 0.00702 µM	135	125	130
HPLM + 10% dialyzed FBS, 0.0211 µM	121	121	113
HPLM + 10% dialyzed FBS, 0.0632 µM	115	120	115
HPLM + 10% dialyzed FBS, 0.19 µM	122	127	107
HPLM + 10% dialyzed FBS, 0.569 µM	128	120	96.3
HPLM + 10% dialyzed FBS, 1.71 µM	98.8	124	116
HPLM + 10% dialyzed FBS, 5.12 µM	67.7	97.3	90.1
HPLM + 10% dialyzed FBS, 15.4 µM	74.5	100	85.8
HPLM + 10% dialyzed FBS, 46.1 µM	49.3	87.8	4.82
RPMI 5 mM glucose + 10% FBS, 0.000781 µM	118	118	88
RPMI 5 mM glucose + 10% FBS, 0.00234 µM	123	119	80.1
RPMI 5 mM glucose + 10% FBS, 0.00702 µM	129	115	71.8
RPMI 5 mM glucose + 10% FBS, 0.0211 µM	104	114	75.2
RPMI 5 mM glucose + 10% FBS, 0.0632 µM	118	124	83.9
RPMI 5 mM glucose + 10% FBS, 0.19 µM	110	112	68.1
RPMI 5 mM glucose + 10% FBS, 0.569 µM	115	103	71.7
RPMI 5 mM glucose + 10% FBS, 1.71 µM	108	101	77.4
RPMI 5 mM glucose + 10% FBS, 5.12 µM	82.8	81.5	57.9
RPMI 5 mM glucose + 10% FBS, 15.4 µM	83.4	94.7	38.9
RPMI 5 mM glucose + 10% FBS, 46.1 µM	91	77.2	3.46
RPMI 5 mM glucose + 10% dialyzed FBS, 0.000781 µM	115	–	129
RPMI 5 mM glucose + 10% dialyzed FBS, 0.00234 µM	124	–	119
RPMI 5 mM glucose + 10% dialyzed FBS, 0.00702 µM	107	–	116
RPMI 5 mM glucose + 10% dialyzed FBS, 0.0211 µM	113	–	111
RPMI 5 mM glucose + 10% dialyzed FBS, 0.0632 µM	110	–	114
RPMI 5 mM glucose + 10% dialyzed FBS, 0.19 µM	119	–	102
RPMI 5 mM glucose + 10% dialyzed FBS, 0.569 µM	91	–	104
RPMI 5 mM glucose + 10% dialyzed FBS, 1.71 µM	84.9	–	107
RPMI 5 mM glucose + 10% dialyzed FBS, 5.12 µM	65	–	79.1
RPMI 5 mM glucose + 10% dialyzed FBS, 15.4 µM	73.7	–	64
RPMI 5 mM glucose + 10% dialyzed FBS, 46.1 µM	61.5	–	5.84

AUC of viability dose-response curve
Details	HPLM + 10% dialyzed FBS	RPMI 5 mM glucose + 10% FBS	RPMI 5 mM glucose + 10% dialyzed FBS
NOMO1 [3]	410	442	403
P12-Ichikawa [4]	450	428	430

CO[C@H]1/C=C/O[C@@]2(C)Oc3c(C)c(O)c4c(c3C2=O)C2=NC3(CCN(CC(C)C)CC3)NC2=C(NC(=O)/C(C)=C/C=C/[C@H](C)[C@H](O)[C@@H](C)[C@@H](O)[C@@H](C)[C@H](OC(C)=O)[C@@H]1C)C4=O
cell viability [%]
Details	HPLM + 10% dialyzed FBS	RPMI 5 mM glucose + 10% FBS	RPMI 5 mM glucose + 10% dialyzed FBS
NOMO1 [1], 0.000781 µM	117	–	–
NOMO1 [1], 0.00234 µM	111	–	–
NOMO1 [1], 0.00702 µM	146	–	–
NOMO1 [1], 0.0211 µM	135	–	–
NOMO1 [1], 0.0632 µM	132	–	–
NOMO1 [1], 0.19 µM	127	–	–
NOMO1 [1], 0.569 µM	138	–	–
NOMO1 [1], 1.71 µM	137	–	–
NOMO1 [1], 5.12 µM	127	–	–
NOMO1 [1], 15.4 µM	113	–	–
NOMO1 [1], 46.1 µM	117	–	–
SEM cells, 0.000781 µM	92.6	116	110
SEM cells, 0.00234 µM	80.4	114	100
SEM cells, 0.00702 µM	103	133	118
SEM cells, 0.0211 µM	109	133	117
SEM cells, 0.0632 µM	122	153	135
SEM cells, 0.19 µM	118	144	122
SEM cells, 0.569 µM	123	135	130
SEM cells, 1.71 µM	17.8	10.7	26.7
SEM cells, 5.12 µM	122	152	123
SEM cells, 15.4 µM	108	125	93
SEM cells, 46.1 µM	105	113	99.1

AUC of viability dose-response curve
Details	HPLM + 10% dialyzed FBS	RPMI 5 mM glucose + 10% FBS	RPMI 5 mM glucose + 10% dialyzed FBS
NOMO1 [3]	471	476	466
P12-Ichikawa [4]	469	466	471
